Reference: ChEMBL document CHEMBL1201862, “PubChem BioAssay data set” (2004)
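48-hour exposure; five concentrations; linearly interpolated endpoints. GI50 marks 50% less growth.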 Activity calls are given as the source filed them. No stated cut-off is given here; in the data, active = GI50 up to about 1.1 µM and inactive = higher.

What was measured:
Test in all cases: DTP human tumour cell line panel, 48 h
[1] = test system: 786-0
[2] = test system: A498
[3] = test system: A549
[4] = test system: ACHN
[5] = test system: CAKI-1
[6] = test system: CCRF-CEM
[7] = test system: COLO 205
[8] = test system: DLD-1
[9] = test system: DMS-114
[10] = test system: DMS-273
[11] = test system: EKVX
[12] = test system: HCC 2998
[13] = test system: HCT-116
[14] = test system: HCT-15
[15] = test system: HL-60
[16] = test system: HOP-18
[17] = test system: HOP-62
[18] = test system: HOP-92
[19] = test system: HT-29
[20] = test system: IGROV-1
[21] = test system: K562
[22] = test system: KM-20L2
[23] = test system: KM12
[24] = test system: LOX IMVI
[25] = test system: LXFL 529
[26] = test system: M14
[27] = test system: M19-MEL
[28] = test system: MOLT-4
[29] = test system: Malme-3M
[30] = test system: NCI-H226
[31] = test system: NCI-H23
[32] = test system: NCI-H460
[33] = test system: NCI-H522
[34] = test system: OVCAR-3
[35] = test system: OVCAR-4
[36] = test system: OVCAR-5
[37] = test system: OVCAR-8
[38] = test system: RPMI-8226
[39] = test system: RXF 393
[40] = test system: RXF 631
[41] = test system: SF-268
[42] = test system: SF-295
[43] = test system: SF-539
[44] = test system: SK-MEL-2
[45] = test system: SK-OV-3
[46] = test system: SN12C
[47] = test system: SNB-19
[48] = test system: SNB-75
[49] = test system: SNB-78
[50] = test system: SW-620
[51] = test system: TK-10
[52] = test system: U-251
[53] = test system: UACC-257
[54] = test system: UACC-62
[55] = test system: UO-31
[56] = test system: SK-MEL-5
[57] = test system: SR

COC(=O)C(C(=O)C(=O)Nc1c(Cl)cc([N+](=O)[O-])cc1Cl)c1nc2cc(C)c(C)cc2nc1O (stereo not drawn)
GI50 [1]: > 100 µM (inactive) | GI50 [2]: 44.9 µM (inactive) | GI50 [3]: > 100 µM (inactive) | GI50 [4]: > 100 µM (inactive) | GI50 [5]: > 100 µM (inactive) | GI50 [6]: > 100 µM (inactive) | GI50 [7]: > 100 µM (inactive) | GI50 [8]: > 100 µM (inactive) | GI50 [9]: 76.4 µM (inactive) | GI50 [10]: > 100 µM (inactive) | GI50 [11]: 38.9 µM (inactive) | GI50 [12]: > 100 µM (inactive) | GI50 [13]: > 100 µM (inactive) | GI50 [14]: > 100 µM | GI50 [15]: > 100 µM (inactive) | GI50 [16]: 72.6 µM (inactive) | GI50 [17]: > 100 µM (inactive) | GI50 [18]: 47.8 µM (inactive) | GI50 [19]: > 100 µM (inactive) | GI50 [20]: > 100 µM (inactive) | GI50 [21]: > 100 µM (inactive) | GI50 [22]: > 100 µM (inactive) | GI50 [23]: > 100 µM (inactive) | GI50 [24]: > 100 µM (inactive) | GI50 [25]: > 100 µM (inactive) | GI50 [26]: > 100 µM (inactive) | GI50 [27]: > 100 µM (inactive) | GI50 [28]: > 100 µM (inactive) | GI50 [29]: > 100 µM (inactive) | GI50 [30]: > 100 µM (inactive) | GI50 [31]: > 100 µM (inactive) | GI50 [32]: > 100 µM (inactive) | GI50 [33]: > 100 µM (inactive) | GI50 [34]: > 100 µM (inactive) | GI50 [35]: > 100 µM (inactive) | GI50 [36]: > 100 µM (inactive) | GI50 [37]: > 100 µM (inactive) | GI50 [38]: > 100 µM (inactive) | GI50 [39]: > 100 µM (inactive) | GI50 [40]: > 100 µM (inactive) | GI50 [41]: > 100 µM (inactive) | GI50 [42]: > 100 µM (inactive) | GI50 [43]: > 100 µM (inactive) | GI50 [44]: > 100 µM (inactive) | GI50 [45]: > 100 µM (inactive) | GI50 [46]: > 100 µM (inactive) | GI50 [47]: > 100 µM (inactive) | GI50 [48]: 86.5 µM (inactive) | GI50 [49]: > 100 µM (inactive) | GI50 [50]: > 100 µM (inactive) | GI50 [51]: > 100 µM (inactive) | GI50 [52]: > 100 µM (inactive) | GI50 [53]: > 100 µM (inactive) | GI50 [54]: 59.2 µM (inactive) | GI50 [55]: > 100 µM (inactive)

CCCC(=O)OC[n+]1ccc2c(C)c3[nH]c4ccccc4c3c(C)c2c1
GI50 [1]: 0.305 µM (active) | GI50 [2]: 1.34 µM (inactive) | GI50 [3]: 0.317 µM (active) | GI50 [4]: 0.504 µM (active) | GI50 [5]: 1.29 µM (inactive) | GI50 [6]: 1.66 µM (inactive) | GI50 [7]: 0.705 µM (active) | GI50 [9]: 0.641 µM (active) | GI50 [10]: 0.101 µM (active) | GI50 [12]: 0.611 µM (active) | GI50 [13]: 0.118 µM (active) | GI50 [14]: 0.274 µM | GI50 [15]: 1.68 µM (inactive) | GI50 [16]: 1.09 µM (active) | GI50 [17]: 0.914 µM (active) | GI50 [18]: 1.32 µM (inactive) | GI50 [19]: > 100 µM (inactive) | GI50 [20]: 0.51 µM (active) | GI50 [21]: 0.466 µM (active) | GI50 [22]: 0.478 µM (active) | GI50 [23]: 0.377 µM (active) | GI50 [24]: 0.341 µM (active) | GI50 [25]: 0.57 µM (active) | GI50 [26]: 1.12 µM (inactive) | GI50 [27]: > 100 µM (inactive) | GI50 [28]: 0.0661 µM (active) | GI50 [29]: 1.33 µM (inactive) | GI50 [30]: 1.11 µM (active) | GI50 [31]: 0.064 µM (active) | GI50 [32]: 0.0208 µM (active) | GI50 [33]: 0.832 µM (active) | GI50 [34]: 1.2 µM (inactive) | GI50 [35]: 0.706 µM (active) | GI50 [36]: 1.04 µM (active) | GI50 [37]: 0.394 µM (active) | GI50 [38]: 0.0374 µM (active) | GI50 [39]: 0.067 µM (active) | GI50 [40]: 0.378 µM (active) | GI50 [41]: 0.661 µM (active) | GI50 [42]: 0.43 µM (active) | GI50 [43]: 0.519 µM (active) | GI50 [44]: 1.51 µM (inactive) | GI50 [56]: 1.54 µM (inactive) | GI50 [45]: 0.547 µM (active) | GI50 [46]: 0.404 µM (active) | GI50 [47]: 0.935 µM (active) | GI50 [48]: > 100 µM (inactive) | GI50 [49]: 1.1 µM (active) | GI50 [57]: 0.0681 µM (active) | GI50 [50]: 0.215 µM (active) | GI50 [51]: 1.71 µM (inactive) | GI50 [52]: 0.498 µM (active) | GI50 [53]: 1.35 µM (inactive) | GI50 [54]: 1.5 µM (inactive) | GI50 [55]: 1.87 µM (inactive)

O=C(/C=C/c1ccccc1)c1ccc(Cl)cc1Cl
GI50 [1]: 17.9 µM (inactive) | GI50 [2]: 18.3 µM (inactive) | GI50 [3]: 25.8 µM (inactive) | GI50 [4]: 18.2 µM (inactive) | GI50 [5]: 25.9 µM (inactive) | GI50 [6]: 7.24 µM (inactive) | GI50 [7]: 20.5 µM (inactive) | GI50 [8]: 17.1 µM (inactive) | GI50 [9]: 17.3 µM (inactive) | GI50 [10]: 15.5 µM (inactive) | GI50 [11]: 28.4 µM (inactive) | GI50 [12]: 23.3 µM (inactive) | GI50 [13]: 11.2 µM (inactive) | GI50 [14]: 13.1 µM | GI50 [15]: 14.8 µM (inactive) | GI50 [16]: 22 µM (inactive) | GI50 [17]: 94.4 µM (inactive) | GI50 [18]: 35.9 µM (inactive) | GI50 [19]: 16.8 µM (inactive) | GI50 [20]: 18.5 µM (inactive) | GI50 [21]: 10 µM (inactive) | GI50 [22]: 19.5 µM (inactive) | GI50 [23]: 15.9 µM (inactive) | GI50 [25]: 15.1 µM (inactive) | GI50 [26]: 23.2 µM (inactive) | GI50 [27]: 23.4 µM (inactive) | GI50 [28]: 18.1 µM (inactive) | GI50 [29]: 25.1 µM (inactive) | GI50 [30]: 29.9 µM (inactive) | GI50 [31]: 27.5 µM (inactive) | GI50 [32]: 17.6 µM (inactive) | GI50 [33]: 13.4 µM (inactive) | GI50 [34]: 20 µM (inactive) | GI50 [35]: 20.7 µM (inactive) | GI50 [36]: 20.6 µM (inactive) | GI50 [37]: 15.1 µM (inactive) | GI50 [38]: 3.76 µM (inactive) | GI50 [40]: 38 µM (inactive) | GI50 [41]: 28.4 µM (inactive) | GI50 [42]: 19.9 µM (inactive) | GI50 [43]: 20.8 µM (inactive) | GI50 [56]: 14.1 µM (inactive) | GI50 [45]: 46.9 µM (inactive) | GI50 [46]: 23.1 µM (inactive) | GI50 [47]: 27.5 µM (inactive) | GI50 [48]: 30.8 µM (inactive) | GI50 [49]: 22.6 µM (inactive) | GI50 [50]: 4.8 µM (inactive) | GI50 [51]: 31.8 µM (inactive) | GI50 [52]: 19.6 µM (inactive) | GI50 [53]: 23.8 µM (inactive) | GI50 [54]: 15.9 µM (inactive) | GI50 [55]: > 100 µM (inactive)
